Laboratory results taken from ChEMBL document CHEMBL1201862, “PubChem BioAssay data set” (2004).
The source made the active and inactive calls.

Experiments:
[1] = target: Ras and Rab interactor 1/Tyrosine-protein kinase ABL1 (Homo sapiens, UniProt P00519+Q13671); assay type: functional;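 note: biochemical TR-FRET dose-response test measuring inhibition of binding between Rin1 and Abl proteins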
H9c2 = assay: cells; assay type: functional, cell-based; details: Rattus norvegicus, H9c2, Myocardium;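 note: confirmatory concentration-response retest of ultra-high-throughput screening hits for modulation of myocardial damage; cell death induced by hydrogen peroxide oxidative stress; compound pretreatment for 60 min then peroxide exposure for 2 h; potency is for protecting the cells against peroxide damage rather than for killing them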
[2] = target: T1, Heat shock factor protein 1 (Mus musculus, UniProt P38532); assay: enhancement of HSF1-driven luciferase signal – cell-based, NIH3T3, luminescence, dose retest, confirmation (AID 435004); assay type: functional;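 note: stress induced by proteasome inhibitor MG132 added 30 min after compound; luciferase reporter driven by HSF1 response element in NIH3T3 cells; actives raise luminescence as potentiators of the MG132 stress response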
T1 sequence (P38532 whole entry): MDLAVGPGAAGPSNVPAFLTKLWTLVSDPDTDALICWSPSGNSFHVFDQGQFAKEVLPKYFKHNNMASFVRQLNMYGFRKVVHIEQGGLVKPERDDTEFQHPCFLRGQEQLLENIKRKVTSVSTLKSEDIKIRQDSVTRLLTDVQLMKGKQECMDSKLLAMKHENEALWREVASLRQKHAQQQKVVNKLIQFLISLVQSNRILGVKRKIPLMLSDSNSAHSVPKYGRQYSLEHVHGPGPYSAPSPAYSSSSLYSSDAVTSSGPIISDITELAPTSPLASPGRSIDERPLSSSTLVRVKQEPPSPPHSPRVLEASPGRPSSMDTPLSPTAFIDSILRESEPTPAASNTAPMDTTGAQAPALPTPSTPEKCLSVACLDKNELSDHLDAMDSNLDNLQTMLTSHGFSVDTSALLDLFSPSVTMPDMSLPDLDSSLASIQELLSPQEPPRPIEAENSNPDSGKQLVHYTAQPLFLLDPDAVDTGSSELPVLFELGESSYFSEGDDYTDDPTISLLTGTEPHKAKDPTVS

HEK293 = assay: cells; assay type: functional, cell-based; details: Homo sapiens
[3] = target: T2, Nuclear receptor subfamily 0 group B member 1 (Homo sapiens, UniProt P51843); assay: Luminescence-based cell-based high throughput dose response assay for inhibitors of the orphan nuclear receptor subfamily 0, group B, member 1 (DAX1; NR0B1). [Related pubchem assays (depositor defined):AID504766, AID504790]; assay type: functional
T2 sequence (P51843 whole entry): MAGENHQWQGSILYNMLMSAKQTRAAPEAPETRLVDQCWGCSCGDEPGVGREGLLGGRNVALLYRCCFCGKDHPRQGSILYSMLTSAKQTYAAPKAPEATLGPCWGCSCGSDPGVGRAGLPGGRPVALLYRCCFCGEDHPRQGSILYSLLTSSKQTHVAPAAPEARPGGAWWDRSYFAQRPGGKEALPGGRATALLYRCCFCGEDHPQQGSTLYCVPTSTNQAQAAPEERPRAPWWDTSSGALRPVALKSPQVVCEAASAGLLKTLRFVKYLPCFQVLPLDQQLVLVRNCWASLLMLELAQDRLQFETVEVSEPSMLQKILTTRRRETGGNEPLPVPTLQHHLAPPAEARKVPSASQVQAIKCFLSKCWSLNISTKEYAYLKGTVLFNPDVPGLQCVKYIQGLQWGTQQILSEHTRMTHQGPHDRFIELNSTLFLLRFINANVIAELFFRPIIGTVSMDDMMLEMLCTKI

[4] = target: T3, Short transient receptor potential channel 4 (Mus musculus, UniProt Q9QUQ5); assay: calcium entry via TRPC4 opening agents – cell-based, HEK293 TRPC4/mu-opioid, Fluo-4 calcium, dose response (AID 434937); assay type: functional
T3 sequence (Q9QUQ5 whole entry): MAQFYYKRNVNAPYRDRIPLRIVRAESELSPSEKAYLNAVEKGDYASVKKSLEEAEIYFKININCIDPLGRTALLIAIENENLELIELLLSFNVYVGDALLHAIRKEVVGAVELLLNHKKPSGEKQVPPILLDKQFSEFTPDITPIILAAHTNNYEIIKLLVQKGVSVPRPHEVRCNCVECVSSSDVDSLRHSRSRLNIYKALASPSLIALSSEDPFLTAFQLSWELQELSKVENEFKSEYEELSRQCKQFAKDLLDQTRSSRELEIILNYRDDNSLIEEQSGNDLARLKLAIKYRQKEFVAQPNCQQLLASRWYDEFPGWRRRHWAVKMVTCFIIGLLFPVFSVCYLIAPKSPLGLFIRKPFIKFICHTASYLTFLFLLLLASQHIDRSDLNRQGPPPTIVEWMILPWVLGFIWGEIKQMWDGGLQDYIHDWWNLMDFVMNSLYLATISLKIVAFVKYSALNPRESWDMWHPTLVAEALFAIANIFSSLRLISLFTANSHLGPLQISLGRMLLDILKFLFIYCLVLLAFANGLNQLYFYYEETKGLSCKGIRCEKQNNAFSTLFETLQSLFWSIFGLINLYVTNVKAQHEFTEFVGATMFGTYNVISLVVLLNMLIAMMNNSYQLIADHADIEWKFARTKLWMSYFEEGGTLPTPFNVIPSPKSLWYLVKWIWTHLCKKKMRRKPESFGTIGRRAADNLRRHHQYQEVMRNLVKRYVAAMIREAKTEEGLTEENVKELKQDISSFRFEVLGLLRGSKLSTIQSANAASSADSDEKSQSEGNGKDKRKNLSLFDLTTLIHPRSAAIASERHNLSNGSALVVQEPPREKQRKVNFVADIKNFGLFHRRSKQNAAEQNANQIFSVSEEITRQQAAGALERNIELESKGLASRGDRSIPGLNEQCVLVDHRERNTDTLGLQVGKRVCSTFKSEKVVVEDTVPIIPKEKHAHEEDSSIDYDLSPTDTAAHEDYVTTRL

[5] = target: T4, DNA repair protein RAD52 homolog (Homo sapiens, UniProt P43351); assay type: functional, biochemical
T4 sequence (P43351 whole entry): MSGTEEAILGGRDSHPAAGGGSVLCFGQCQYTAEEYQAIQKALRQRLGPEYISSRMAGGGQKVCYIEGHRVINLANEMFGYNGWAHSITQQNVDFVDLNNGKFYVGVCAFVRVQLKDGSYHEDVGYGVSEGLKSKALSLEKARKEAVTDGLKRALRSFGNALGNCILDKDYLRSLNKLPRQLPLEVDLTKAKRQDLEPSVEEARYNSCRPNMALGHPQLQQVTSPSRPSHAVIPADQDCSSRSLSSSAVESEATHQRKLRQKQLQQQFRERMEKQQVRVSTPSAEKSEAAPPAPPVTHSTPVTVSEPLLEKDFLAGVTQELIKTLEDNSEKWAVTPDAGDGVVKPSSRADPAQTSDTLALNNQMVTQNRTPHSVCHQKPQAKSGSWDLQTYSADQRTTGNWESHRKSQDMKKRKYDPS

[6] = target: DNA repair and recombination protein RAD54-like (Homo sapiens, UniProt Q92698); assay: RAD54 Holliday junction migration blockers – biochemical, fluorescence, cherry-picked samples, dose series, confirmation (AID 651657); assay type: functional
Chain of DNA repair and recombination protein RAD54-like (Q92698 whole entry): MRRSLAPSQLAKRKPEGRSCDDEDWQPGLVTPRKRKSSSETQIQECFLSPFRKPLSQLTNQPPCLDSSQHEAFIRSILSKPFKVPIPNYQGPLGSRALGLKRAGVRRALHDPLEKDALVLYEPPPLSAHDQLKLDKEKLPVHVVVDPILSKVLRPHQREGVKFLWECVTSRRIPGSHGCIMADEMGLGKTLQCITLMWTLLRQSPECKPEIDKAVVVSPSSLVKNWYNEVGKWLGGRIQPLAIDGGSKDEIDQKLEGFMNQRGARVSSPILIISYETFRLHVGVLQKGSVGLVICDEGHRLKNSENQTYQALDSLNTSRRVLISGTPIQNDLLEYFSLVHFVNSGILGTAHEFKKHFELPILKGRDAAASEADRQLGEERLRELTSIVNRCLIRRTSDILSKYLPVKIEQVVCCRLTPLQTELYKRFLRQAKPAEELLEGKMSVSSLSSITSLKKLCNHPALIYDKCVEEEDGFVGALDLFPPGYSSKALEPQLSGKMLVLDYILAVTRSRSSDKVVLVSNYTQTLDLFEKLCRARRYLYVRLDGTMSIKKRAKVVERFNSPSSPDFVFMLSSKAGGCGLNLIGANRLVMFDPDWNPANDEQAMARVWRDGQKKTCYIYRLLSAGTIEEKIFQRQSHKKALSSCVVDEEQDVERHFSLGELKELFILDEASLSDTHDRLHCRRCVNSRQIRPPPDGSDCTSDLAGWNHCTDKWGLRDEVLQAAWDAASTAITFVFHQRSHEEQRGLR

[7] = target: T5, High affinity choline transporter 1 (Homo sapiens, UniProt Q9GZV3); assay: human choline transporter blockers, potency – cell-based, 5-point CRC, membrane potential dye, dose response (AID 504840); assay type: functional
T5 sequence (Q9GZV3 whole entry): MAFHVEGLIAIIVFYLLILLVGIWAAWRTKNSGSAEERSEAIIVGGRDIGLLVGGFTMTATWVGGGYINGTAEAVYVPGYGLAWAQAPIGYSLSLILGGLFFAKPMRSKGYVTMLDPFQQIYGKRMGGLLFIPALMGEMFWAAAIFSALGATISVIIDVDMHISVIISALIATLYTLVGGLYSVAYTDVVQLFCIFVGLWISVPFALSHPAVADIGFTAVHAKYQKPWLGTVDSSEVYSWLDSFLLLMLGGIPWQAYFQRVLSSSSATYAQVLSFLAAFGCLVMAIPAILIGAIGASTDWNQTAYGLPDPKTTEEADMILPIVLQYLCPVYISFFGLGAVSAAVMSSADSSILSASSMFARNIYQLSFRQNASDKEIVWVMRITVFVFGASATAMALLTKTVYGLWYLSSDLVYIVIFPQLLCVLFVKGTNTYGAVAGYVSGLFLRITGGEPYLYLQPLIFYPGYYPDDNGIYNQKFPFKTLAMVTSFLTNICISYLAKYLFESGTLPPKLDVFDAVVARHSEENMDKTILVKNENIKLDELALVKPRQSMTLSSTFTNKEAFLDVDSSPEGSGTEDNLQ

[8] = target: T5, High affinity choline transporter 1; assay: human choline transporter blockers, potency – cell-based, 10-point CRC, membrane potential dye, dose response (AID 588401); assay type: functional;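 note: membrane potential dye fluorescence of choline-evoked depolarization via CHT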
[9] = inhibition of ARNT PAS-B/TACC3 complex formation – biochemical, AlphaScreen, cherry-picked samples, confirmation (AID 651703); assay type: functional, Homo sapiens;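 note: His-tagged ARNT PAS-B domain paired with GST-TACC3 E629A dimer coactivator fragment; potency of inhibitors that break up the complex and lower AlphaScreen signal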
cells = assay type: functional
[10] = target: Adenosylmethionine-8-amino-7-oxononanoate aminotransferase (Mycobacterium tuberculosis, UniProt P9WQ81); assay: Mycobacterium tuberculosis BioA enzyme inhibitor Measured in Biochemical System Using Plate Reader - 2163-02_Inhibitor_Dose_CherryPick_Activity.; assay type: functional, Mycobacterium tuberculosis UT205
Chain of Adenosylmethionine-8-amino-7-oxononanoate aminotransferase (P9WQ81 whole entry): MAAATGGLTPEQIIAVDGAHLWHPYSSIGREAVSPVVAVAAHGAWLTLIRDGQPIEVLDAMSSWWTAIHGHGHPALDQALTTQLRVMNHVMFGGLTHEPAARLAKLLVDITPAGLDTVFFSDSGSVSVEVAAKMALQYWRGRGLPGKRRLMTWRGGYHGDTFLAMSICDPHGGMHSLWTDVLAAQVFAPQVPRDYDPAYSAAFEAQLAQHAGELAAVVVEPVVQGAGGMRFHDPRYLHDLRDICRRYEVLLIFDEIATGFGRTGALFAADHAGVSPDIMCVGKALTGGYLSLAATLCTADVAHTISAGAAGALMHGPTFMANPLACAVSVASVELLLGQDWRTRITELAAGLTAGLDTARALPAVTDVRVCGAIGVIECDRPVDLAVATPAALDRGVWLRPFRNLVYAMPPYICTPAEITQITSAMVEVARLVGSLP

[11] = target: 72 kDa type IV collagenase (Homo sapiens, UniProt P08253); assay: Dose Response validation of uHTS RPN11 inhibitor hits using a MMP-2 Fluorescence assay.; assay type: functional
Chain of 72 kDa type IV collagenase (P08253 whole entry): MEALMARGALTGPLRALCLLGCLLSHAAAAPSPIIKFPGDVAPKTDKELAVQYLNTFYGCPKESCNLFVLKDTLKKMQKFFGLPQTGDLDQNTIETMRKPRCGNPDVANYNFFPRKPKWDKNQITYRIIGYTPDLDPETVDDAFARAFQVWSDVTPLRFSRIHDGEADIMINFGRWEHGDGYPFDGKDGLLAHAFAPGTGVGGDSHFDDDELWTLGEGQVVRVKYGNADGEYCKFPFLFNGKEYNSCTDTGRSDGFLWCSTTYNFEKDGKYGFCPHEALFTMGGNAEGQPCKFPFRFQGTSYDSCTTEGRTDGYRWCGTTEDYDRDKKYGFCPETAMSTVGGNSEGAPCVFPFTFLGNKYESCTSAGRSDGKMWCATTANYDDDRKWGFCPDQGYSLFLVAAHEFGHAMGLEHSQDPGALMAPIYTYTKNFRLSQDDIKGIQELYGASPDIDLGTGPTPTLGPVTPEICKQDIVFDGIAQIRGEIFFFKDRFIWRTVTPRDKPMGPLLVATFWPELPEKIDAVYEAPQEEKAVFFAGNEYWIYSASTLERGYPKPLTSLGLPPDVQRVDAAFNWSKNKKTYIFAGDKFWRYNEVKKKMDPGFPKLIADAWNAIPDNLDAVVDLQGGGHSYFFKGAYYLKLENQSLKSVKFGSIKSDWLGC

[12] = target: 26S proteasome non-ATPase regulatory subunit 14 (Homo sapiens, UniProt O00487); assay: inhibition of proteasome subunit RPN11 – biochemical, fluorescence polarization, uHTS hits, confirmation (AID 602368); assay type: functional
Chain of 26S proteasome non-ATPase regulatory subunit 14 (O00487 whole entry): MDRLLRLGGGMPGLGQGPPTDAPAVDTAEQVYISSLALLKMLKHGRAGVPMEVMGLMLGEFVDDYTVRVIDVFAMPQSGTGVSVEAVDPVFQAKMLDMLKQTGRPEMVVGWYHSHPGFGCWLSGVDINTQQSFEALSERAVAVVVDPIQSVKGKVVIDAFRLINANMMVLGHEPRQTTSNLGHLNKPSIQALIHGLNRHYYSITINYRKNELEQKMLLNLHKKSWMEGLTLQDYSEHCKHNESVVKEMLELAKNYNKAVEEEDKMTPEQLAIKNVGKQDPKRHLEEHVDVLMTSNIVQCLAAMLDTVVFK

Prothrombin = Prothrombin (Bos taurus, UniProt P00735); assay: thrombin protease inhibitors – biochemical, fluorescence polarization, uHTS hits, dose response (AID 602369); assay type: functional
Trypsin = Trypsin (Sus scrofa, UniProt P00761); assay: trypsin protease activity blockade – biochemical, quenched peptide fluorescence, cherry-pick, selectivity assay for Rce1 protease inhibitor project, dose response (AID 488789)
Chain of Trypsin (P00761 whole entry): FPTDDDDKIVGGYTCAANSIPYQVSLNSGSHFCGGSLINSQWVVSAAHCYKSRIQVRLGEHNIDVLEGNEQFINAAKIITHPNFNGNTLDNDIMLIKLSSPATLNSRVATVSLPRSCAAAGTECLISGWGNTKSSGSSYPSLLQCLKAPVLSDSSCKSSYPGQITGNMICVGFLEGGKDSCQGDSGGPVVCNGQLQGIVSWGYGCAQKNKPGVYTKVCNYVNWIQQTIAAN

CAAX prenyl protease 2 [13] = target: T6, CAAX prenyl protease 2 (Homo sapiens, UniProt Q9Y256); assay: inhibition of Ras-converting CAAX protease Rce1 – biochemical, yeast membranes, quenched-peptide fluorescence, cherry-pick, dose response (AID 588849)
T6 sequence (Q9Y256 whole entry): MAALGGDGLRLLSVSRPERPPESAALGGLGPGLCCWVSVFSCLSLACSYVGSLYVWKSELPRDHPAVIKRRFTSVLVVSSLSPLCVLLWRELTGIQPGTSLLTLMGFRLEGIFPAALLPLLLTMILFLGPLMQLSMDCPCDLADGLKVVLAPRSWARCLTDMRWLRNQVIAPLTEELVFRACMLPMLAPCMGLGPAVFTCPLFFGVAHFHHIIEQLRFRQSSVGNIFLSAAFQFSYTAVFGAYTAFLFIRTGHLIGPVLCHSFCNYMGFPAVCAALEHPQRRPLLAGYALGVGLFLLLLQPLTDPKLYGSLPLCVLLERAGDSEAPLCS

CAAX prenyl protease 2 [14] = target: T7, CAAX prenyl protease 2 (Saccharomyces cerevisiae S288c, UniProt Q03530); assay type: biochemical
T7 sequence (Q03530 whole entry): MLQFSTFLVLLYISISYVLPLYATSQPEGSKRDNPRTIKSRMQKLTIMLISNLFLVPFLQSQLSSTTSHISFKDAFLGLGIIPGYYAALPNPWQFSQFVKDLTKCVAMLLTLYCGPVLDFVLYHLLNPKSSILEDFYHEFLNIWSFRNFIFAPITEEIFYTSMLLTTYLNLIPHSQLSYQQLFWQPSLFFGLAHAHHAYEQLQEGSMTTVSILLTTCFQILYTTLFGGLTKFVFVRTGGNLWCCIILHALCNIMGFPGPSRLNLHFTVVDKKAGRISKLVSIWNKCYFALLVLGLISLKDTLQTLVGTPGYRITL

CHO = CHO cell viability loss, potency – luminescence, cytotoxicity control for TLR9-MyD88 binding inhibitor project, dose response (AID 588339); assay type: functional, cell-based, hamster; details: Cricetulus griseus;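 note: CHO cells stably coexpressing TLR9 and MyD88 fusions from primary screen; compound exposure lasted 48 hours before viability readout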

Chain of Ras and Rab interactor 1/Tyrosine-protein kinase ABL1 (P00519 whole entry): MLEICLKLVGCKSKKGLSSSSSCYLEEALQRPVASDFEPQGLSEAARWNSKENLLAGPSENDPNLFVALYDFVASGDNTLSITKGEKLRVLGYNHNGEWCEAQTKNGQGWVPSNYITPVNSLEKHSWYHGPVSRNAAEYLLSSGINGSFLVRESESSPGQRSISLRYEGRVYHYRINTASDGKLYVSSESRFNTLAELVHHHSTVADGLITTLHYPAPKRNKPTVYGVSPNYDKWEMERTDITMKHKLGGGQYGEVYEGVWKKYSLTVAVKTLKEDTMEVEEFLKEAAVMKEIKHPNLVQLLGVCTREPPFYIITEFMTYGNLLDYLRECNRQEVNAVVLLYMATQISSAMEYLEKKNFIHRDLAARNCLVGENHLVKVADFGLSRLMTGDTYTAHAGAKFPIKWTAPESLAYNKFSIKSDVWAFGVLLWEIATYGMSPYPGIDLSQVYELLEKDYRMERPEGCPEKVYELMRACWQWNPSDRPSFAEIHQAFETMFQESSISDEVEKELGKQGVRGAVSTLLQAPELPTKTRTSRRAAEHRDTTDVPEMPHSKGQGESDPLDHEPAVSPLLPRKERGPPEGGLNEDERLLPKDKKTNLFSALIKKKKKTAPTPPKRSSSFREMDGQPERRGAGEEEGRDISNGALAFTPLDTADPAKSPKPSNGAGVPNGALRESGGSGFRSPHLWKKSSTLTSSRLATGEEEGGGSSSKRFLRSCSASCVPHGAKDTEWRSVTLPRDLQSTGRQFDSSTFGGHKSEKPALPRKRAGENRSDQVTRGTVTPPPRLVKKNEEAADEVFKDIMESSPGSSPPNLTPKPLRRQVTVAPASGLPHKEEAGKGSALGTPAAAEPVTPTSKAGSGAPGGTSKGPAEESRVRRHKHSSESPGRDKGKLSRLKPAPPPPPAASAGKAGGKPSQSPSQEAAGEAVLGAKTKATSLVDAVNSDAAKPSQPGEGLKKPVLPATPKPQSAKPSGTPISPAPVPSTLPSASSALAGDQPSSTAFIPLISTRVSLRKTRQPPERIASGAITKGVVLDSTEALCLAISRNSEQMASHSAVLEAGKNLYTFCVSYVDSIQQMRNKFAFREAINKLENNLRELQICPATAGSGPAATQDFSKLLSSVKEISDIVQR
Chain of Ras and Rab interactor 1/Tyrosine-protein kinase ABL1 (Q13671 whole entry): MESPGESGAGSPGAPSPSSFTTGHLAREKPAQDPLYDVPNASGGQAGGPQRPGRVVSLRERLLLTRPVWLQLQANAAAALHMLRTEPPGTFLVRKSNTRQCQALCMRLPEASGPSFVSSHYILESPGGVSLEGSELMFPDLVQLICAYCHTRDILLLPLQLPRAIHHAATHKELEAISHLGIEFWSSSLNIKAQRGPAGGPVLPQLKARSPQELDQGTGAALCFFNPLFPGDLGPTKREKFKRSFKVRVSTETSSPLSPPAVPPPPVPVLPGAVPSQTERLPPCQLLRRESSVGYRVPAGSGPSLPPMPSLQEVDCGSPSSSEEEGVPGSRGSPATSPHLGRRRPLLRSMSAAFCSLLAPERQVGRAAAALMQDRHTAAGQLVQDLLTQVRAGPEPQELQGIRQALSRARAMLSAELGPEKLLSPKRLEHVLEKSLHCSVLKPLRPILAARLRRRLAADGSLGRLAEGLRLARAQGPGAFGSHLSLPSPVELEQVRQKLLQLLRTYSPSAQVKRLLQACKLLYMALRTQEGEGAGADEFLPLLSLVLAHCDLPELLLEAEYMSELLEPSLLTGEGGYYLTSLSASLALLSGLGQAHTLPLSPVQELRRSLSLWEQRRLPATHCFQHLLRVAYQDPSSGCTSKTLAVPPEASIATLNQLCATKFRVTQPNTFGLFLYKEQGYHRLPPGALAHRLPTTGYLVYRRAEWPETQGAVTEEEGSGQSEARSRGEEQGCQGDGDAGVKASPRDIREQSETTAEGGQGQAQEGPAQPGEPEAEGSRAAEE

Structure (SMILES): O=c1[nH]n(CC2COC3(CCCCC3)O2)c(=O)c2ccccc12 (stereo not drawn)
- IC50 [1]: 12.5 µM (inactive)
- IC50 (H9c2): > 79 µM (inactive)
- EC50 [2]: 79 µM (active)

Structure (SMILES): O=C(COC(=O)c1[nH]nc2ccccc12)Nc1ccccc1
- IC50 (HEK293): > 67.5 µM (inactive)
- IC50 [3]: > 67.5 µM (inactive)

Structure (SMILES): CCCN(CCC)CCCNC(=O)c1cc2c(-c3ccc(OC)c(OC)c3)nn(C)c2s1
- EC50 [4]: 0.531 µM (active)
- AC50 [5]: 3.41 µM (active)
- AC50 [6]: 9.65 µM (active)

Structure (SMILES): CCCCC(=O)C1CCN(Cc2ccccc2)CC1
- IC50 [1]: 19.4 µM (inactive)

Structure (SMILES): COc1ccc(C(=O)C[n+]2cccc(Br)c2)cc1
- IC50 [7]: 4.21 µM (active)
- IC50 [8]: 1.19 µM (active)

Structure (SMILES): COCCn1c(C)cc(C(=O)COC(=O)c2ccc([N+](=O)[O-])o2)c1C
- AC50 [9]: 117 µM (active)
- IC50 (cells): < 0.1 µM (active)

Structure (SMILES): CCSc1nnc(NC(=O)C(C)(C(F)(F)F)C(F)(F)F)s1
- IC50 [7]: 3.47 µM (active)
- IC50 [8]: 2.82 µM (active)

Structure (SMILES): Cc1cc(C)n2nc(C(=O)Nc3cccnc3)nc2n1
- AC50 [10]: 4.85 µM (active)

Structure (SMILES): O=C1CSC(=S)N1N=Cc1ccc(Cl)s1
- IC50 [11]: > 100 µM (inactive)
- IC50 [12]: 59.4 µM (active)
- IC50 (Prothrombin): 27.1 µM (active)

Structure (SMILES): COc1ccc2c(c1)c1ncn(CCN3CCCCC3)c(=O)c1n2C
- AC50 (Trypsin): 13.1 µM (active)
- AC50 (CAAX prenyl protease 2 [13]): 4.82 µM (active)
- AC50 [6]: 35 µM (active)
- AC50 (CAAX prenyl protease 2 [14]): 13.9 µM (active)

Structure (SMILES): COc1cc(-c2nnc(S)n2C(C)c2ccccc2)cc(OC)c1OC (stereo not drawn)
- AC50 [10]: 5.84 µM (active)

Structure (SMILES): O=C(NCc1cccc(C(F)(F)F)c1)c1cccc2c1C(=O)c1ccc(N3CCC(Cc4ccccc4)CC3)cc1S2(=O)=O
- IC50 (CHO): > 49.8 µM (inactive)

Structure (SMILES): COC(=O)c1ccc(N2NC(=O)/C(=C/c3cc(OC)c(O)c(OC)c3)C2=O)cc1
- IC50 [11]: 81.6 µM (active)
- IC50 [12]: 18.5 µM (active)
- IC50 (Prothrombin): 27 µM (active)
